From patent publication US20110144194A1, “CHROMENONE DERIVATIVES USEFUL FOR THE TREATMENT OF NEURODEGENERATIVE DISEASES” (priority 2008, published 2011)
Entries after “also recorded” stand apart in the source; their conditions may differ.

Key:
microglial cells [1] = assay: Nitrite quantification by Griess method in LPS-activated microglial cells; format: cell-based; settings: test compound at 1 μM; 10 ng/ml LPS; medium collected after 48 h; control 0.1% DMSO; read-out: % of NO/control
Experimental: (§1) The experiments that were carried out concern the ability of these molecules to inhibit the liberation of nitrites and Tumor Necrosis Factor-alpha (TNF-α) in the activated microglia. NO and TNF-α production are two common parameters related to inflammatory processes.
To evaluate the nitrite production, microglial cells were cultured in DMEM-F12 medium containing 2% heat-inactivated FBS in 48 well plates at a density of 20000 cells per well. Peripheral wells of the plate were discarded. After 72 h, 400 μL out of 500 μL medium was replaced by 350 μL fresh medium. The cells were treated with each molecule to be tested by adding 50 μL of a 10× solution to obtain a final concentration ranging from 0.1 μM to 1 μM. Each treatment was done in duplicates. 10 ng/ml LPS was added after 1 hour and the medium was collected after 48 h and stored at −20° C. until analysis. To quantify the NO production, nitrites were measured using Griess reactive (sulfanilamide 1%, Sigma; N-(1-Naphthyl)ethylenediamine 0.1%, Sigma; phosphoric acid 2.5%). Briefly, 100 μL of medium was placed into a 96 well plate and 100 μL of Griess reactive was added. After […] incubation at RT in the dark, the OD was measured at 550 nm.
The ability of each test compound to decrease the production of nitrite is presented as a percent decrease in OD with respect to the absorbance of the control condition i.e. 0.1% DMSO.

[2] = tested on: SH-SY5Y neuroblastoma cell line; assay: Differentiation of human neuroblastoma cell line SH-SY5Y into neurons: real-time PCR of Hash1 and Notch1; format: cell-based; settings: 1 μM, 24 hours; vs 0.1% DMSO vehicle; β-actin internal control
Experimental: SH-SY5Y cells were cultured in 6 well plates at a density of 500000 cells per well and was maintained in DMEM with 10% FBS. After 24 h, the cells were treated with test compounds (1 μM) or 0.1% DMSO vehicle as control. RNA extraction was performed after 24 hours of incubation and gene expression was analyzed by real-time PCR.
The specific primer pairs directed against human Hash1, Notch1 and beta-actin are from the online database qprimerdepot (http://primerdepot.nci.nih.gov/).
The human homolog of Mash1, Hash1, is expressed in neuroblastoma cell lines. […] 2001, 36,132]. Therefore, we tested whether compounds of general Formula (I) and (II) could induce the differentiation of SH-SY5Y neuroblastoma cell line by modulating the gene expression of Hash1 and Notch1.
FIG. 3: Compound A and B induces neuroblastoma differentiation into a neuronal phenotype. Real-time PCR gene expression analysis in SH-SY5Y neuroblastoma cell line. RNA extraction was performed after 24 hours of incubation with compound A and B (1 μM) or with 0.1% DMSO vehicle as control.

[3] = tested on: NSCs derived neurospheres; assay: Differentiation of NSCs to neurons: real-time PCR of Hes5 and Mash1 in neurospheres (Notch signaling); format: cell-based, mouse; settings: 1 μM, vs 0.1% DMSO vehicle, β-actin internal control
Experimental: The NSCs derived neurospheres culture was established from embryonic mouse cortices. Neurospheres were maintained in Neurobasal-A medium supplemented with B27 w/o retinoic acid, 2 mM Glutamine, 20 ng/ml EGF and antibiotics. The neurospheres were dissociated using a non enzymatic dissociation medium (Invitrogen) and the single cell suspension added to a flask with fresh medium. To differentiate the neurospheres into neurons, oligodendrocytes and astrocytes, 3 to 4 days old neurospheres were cultured in poly-ornithine treated 35 mm dishes. Cells were treated with test compounds (1 μM) or 0.1% DMSO vehicle as control in Neurobasal-A medium supplemented with B27 w/o retinoic acid, 2 mM Glutamine, antibiotics, 2 ng/ml EGF and 0.5% of heat inactivated FBS. RNA extraction was performed after 24 hours of incubation and gene expression was analyzed by real-time PCR.
The primer pairs for mouse Mash1, Hes5 and beta-actin were designed with the beacon designer software (premierbiosoft).
Notch signaling controls a wide variety of cell fate decisions, including the differentiation of NSCs during neurogenesis [Artavanis-Tsakonas, S. et al., Science, 1999, 284, 770]. […] Notch activation induces the expression of the downstream effectors Hes1 and Hes5, which down-regulate gene transcription of b-HLH transcription factors such as Mash1. Therefore, we tested whether compounds of general Formula (I) and (II) could modulate Notch signalling in NSCs. […] Inhibition of the Hes5 gene expression in the treated cultures was further correlated with an increase of Mash1 transcripts, a b-HLH factor involved in neuronal specification and differentiation [Ito, H. et al., J Neurosci Res. 2003, 71, 648].
FIG. 2: Compound A and B induces NSCs differentiation into neurons. Real-time PCR gene expression analysis in neurospheres. RNA extraction was performed after […] of incubation with compound A and B (1 μM) or with 0.1% DMSO vehicle as control.

microglial cell line = assay: Real-time PCR gene expression analysis in microglial cell line with or without LPS activation; format: cell-based; settings: 1 μM, 3 hours incubation, with or without LPS 0.01 μg/ml; normalized to β-actin
Experimental: To evaluate mRNA expression levels, total RNA was extracted using invisorb
RNA extraction kit (Invitek). The concentration was determined by reading the OD at 260 nm. Retro-transcription was performed using Im-Prom-II™ Reverse Transcription System (Promega) with 1 μg of total RNA.
The reaction mixture contained 12.5 μl 2× SYBR Green mastermix (Biorad), 1 μl cDNA, 1 μl of each primer (12.5 μM) and 9.5 μl of H2O. The real-time PCR amplification was controlled by the MyIQ5 system (Biorad). After activation of the enzyme at 94° C. for […], the amplification was done by cycling 40 times between a denaturation step at 94° C. and the annealing step at 54.5° C. Gene expression was analyzed using the provided software and normalized to beta-actin expression.
FIG. 1: Compound B inhibits microglial activation in vitro. Real-time PCR gene expression analysis in microglial cell line. RNA extraction was performed after 3 hours of incubation with compound B (1 μM), with or without LPS activation (0.01 μg/ml).

microglial cells [4] = assay: TNF-α quantification by ELISA in supernatant of microglial cells; format: cell-based; settings: test compound at 1 μM; medium collected 48 h after treatment; control 0.1% DMSO
Experimental: as §1
To quantify the presence of TNF-α in the supernatant of microglial cells, the medium was collected 48 h after treatment as described above. The ELISA 96 well plate was incubated overnight with the capture antibody (0.8 μg/ml, R&D). 10 μl of each sample was diluted with 90 μL of incubation buffer (PBS-BSA 1%, pH 7.2-7.4) and the plate was incubated for 2 h at RT. The plate was washed 3 times and incubated for 2 h with the detection antibody (150 ng/mL, R&D). […] After […] incubation at RT, the reaction was stopped with an equal volume of a 10% solution of sulfuric acid and the OD was measured at 450 nm.
The ability of each test compound to decrease the production of TNF-α is presented as a percent decrease in OD with respect to the absorbance of the control condition i.e. 0.1% DMSO.

Compound	activity at 1 µM (microglial cells [1]) [%]	also measured
COc1ccc(-c2oc3ccc(CCCCCCCCCCCCO)cc3c(=O)c2O)cc1OC	87.7 ± 7.7	–
COc1ccc(-c2oc3ccc(CCCCCCCCCCCCCO)cc3c(=O)c2O)cc1OC	89 ± 7.6	–
O=c1c(O)c(-c2ccc(O)c(O)c2)oc2ccc(CCCCCCCCCCCCO)cc12	84.5 ± 5.9	–
O=c1c(O)c(-c2ccc(O)c(O)c2)oc2ccc(CCCCCCCCCCCCCO)cc12	86.3 ± 4.2	–
COc1cc(-c2oc3ccc(CCCCCCCCCCCCCO)cc3c(=O)c2OC)ccc1O	95.3 ± 4.8	–
COc1ccc(-c2oc3ccc(CCCCCCCCCCCCCO)cc3c(=O)c2O)cc1O	103 ± 4	–
COc1cc(-c2oc3cc(O)c(CCCCCCCCCCCCO)cc3c(=O)c2O)ccc1O	90.3 ± 3.9	–
COc1cc(-c2oc3cc(O)c(CCCCCCCCCCCCCO)cc3c(=O)c2O)ccc1O	98.2 ± 1	–
COc1cc(-c2oc3cc(O)c(CCCCCCCCCCCCO)c(O)c3c(=O)c2O)ccc1O	99.6 ± 1.5	–
COc1cc(-c2oc3cc(O)c(CCCCCCCCCCCCCO)c(O)c3c(=O)c2O)ccc1O	109 ± 10.5	–
O=c1c(O)c(-c2ccc(O)c(O)c2)oc2cc(O)c(CCCCCCCCCCCCO)c(O)c12	81.6 ± 4	–
O=c1c(O)c(-c2ccc(O)c(O)c2)oc2cc(O)c(CCCCCCCCCCCCCO)c(O)c12	82.4 ± 6.3	–
COc1c(CCCCCCCCCCCCO)c(O)cc2oc(-c3ccc(O)c(O)c3)c(O)c(=O)c12	112 ± 1.7	–
COc1c(CCCCCCCCCCCCCO)c(O)cc2oc(-c3ccc(O)c(O)c3)c(O)c(=O)c12	91.5 ± 2.6	–
COc1cc(-c2oc3cc(O)c(CCCCCCCCCCCCO)c(OC)c3c(=O)c2O)ccc1O	97.6 ± 6.9	–
COc1cc(-c2oc3cc(O)c(CCCCCCCCCCCCCO)c(OC)c3c(=O)c2O)ccc1O	96.6 ± 4.2	–
COc1cc(-c2cc(=O)c3cc(CCCCCCCCCCCCCO)ccc3o2)ccc1O	102 ± 3.8	–
COc1cc(-c2oc3cc(O)c4cc(CCCCCCCCCCCCO)oc4c3c(=O)c2O)ccc1O	112 ± 8	–
O=c1c(O)c(-c2ccc(O)c(O)c2)oc2cc(O)c3cc(CCCCCCCCCCCCO)oc3c12	112 ± 9.2	–
COc1cc(-c2oc3ccc(CCCCCCCCCCCCO)cc3c(=O)c2O)ccc1O [Compound A, 3-hydroxy-2-(4-hydroxy-3-methoxyphenyl)-6-(12-hydroxydodecyl)-4H-chromen-4-one]	–	Hash1 transcripts [2]: inhibit; also recorded: significantly decreased; Notch1 transcripts [2]: inhibit; also recorded: significantly decreased; Hes5 gene expression [3]: decrease; Mash1 transcripts [3]: increase; also recorded: significantly increased
COc1cc(-c2oc3ccc(CCCCCCCCCCCCCO)cc3c(=O)c2O)ccc1O [Compound B, 3-hydroxy-2-(4-hydroxy-3-methoxyphenyl)-6-(13-hydroxytridecyl)-4H-chromen-4-one]	–	Expression of transcripts (iNOS, TNF-α gene expression) in treated microglial cells (microglial cell line): significantly decreased; Hash1 transcripts [2]: inhibit; also recorded: significantly decreased; Notch1 transcripts [2]: inhibit; also recorded: significantly decreased; Hes5 gene expression [3]: decrease; Mash1 transcripts [3]: increase; also recorded: significantly increased
COc1cc(-c2oc3ccc(CCCCCCCCCCCO)cc3c(=O)c2O)ccc1O [drawing 16]	72 ± 3	–
COc1cc(-c2oc3ccc(CCCCCCCCCCCCO)cc3c(=O)c2O)ccc1O [drawing 17]	61.1 ± 3.1	–
COc1cc(-c2oc3ccc(CCCCCCCCCCCCCO)cc3c(=O)c2O)ccc1O [drawing 18, 3-hydroxy-2-(4-hydroxy-3-methoxyphenyl)-6-(13-hydroxytridecyl)-4H-chromen-4-one]	59.8 ± 2.1	–
COc1cc(-c2oc3ccc(CCCCCCCCCCCCCCO)cc3c(=O)c2O)ccc1O [drawing 19]	77.5 ± 3.9	–
CCCCCCCCCCCCCc1ccc2oc(-c3ccc(O)c(OC)c3)c(O)c(=O)c2c1 [drawing 35]	85 ± 0.9	–
COc1cc(-c2oc3ccc(CCCCCCCCCCCO)cc3c(=O)c2O)ccc1O [drawing 38]	–	% of TNF-α/control (microglial cells [4]): 69.2 ± 3.9%
COc1cc(-c2oc3ccc(CCCCCCCCCCCCCO)cc3c(=O)c2O)ccc1O [drawing 40]	–	% of TNF-α/control (microglial cells [4]): 77.2 ± 9.4%
COc1cc(-c2oc3ccc(CCCCCCCCCCCCCCO)cc3c(=O)c2O)ccc1O [drawing 41]	–	% of TNF-α/control (microglial cells [4]): 75.4 ± 17.2%
CCCCCCCCCCCCCc1ccc2oc(-c3ccc(O)c(OC)c3)c(O)c(=O)c2c1 [drawing 42]	–	% of TNF-α/control (microglial cells [4]): 91.2 ± 7.9%
